From patent publication US20230093861A1, “RAPAMYCIN ANALOGS AS MTOR INHIBITORS” (Revolution Medicines, Inc., priority 2017, published 2023)
Read-outs that look alike come from different tables or passages of the source.

Key:
[1] = system: P-P70S6K (T389); assay: Cell based AlphaLISA assay, inhibition of P-P70S6K (T389) (mTORC1 substrate phosphorylation) in MDA-MB-468 cells; details: Homo sapiens, 4 h, AlphaLISA, two to four hours at 37° C., read-out: pIC50 for Inhibition of mTORC1 and mTORC2 Substrate Phosphorylation, P-P70S6K-(T389) (converted)
In short: (§1)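 Phosphoprotein levels were quantified with AlphaLISA SureFire Ultra kits after compound treatment. Incubation ended by removing assay buffer and lysing cells, and the Alpha signal was read in duplicate. IC50 came from normalized concentration-response regression with control-based normalization.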

[2] = system: P-4E-BP1 (T37/46); assay: Cell based AlphaLISA assay, inhibition of P-4E-BP1 (T37/46) (mTORC1 substrate phosphorylation) in MDA-MB-468 cells; details: Homo sapiens, AlphaLISA, two to four hours at 37° C., read-out: pIC50 for Inhibition of mTORC1 and mTORC2 Substrate Phosphorylation, P-4E-BP1-(T37/46) (converted)
In short: as §1

[3] = system: P-Akt (S473); assay: Cell based AlphaLISA assay, inhibition of P-Akt (S473) (mTORC2 substrate phosphorylation) in MDA-MB-468 cells; details: Homo sapiens, AlphaLISA, two to four hours at 37° C., read-out: pIC50 for Inhibition of mTORC1 and mTORC2 Substrate Phosphorylation, p-AKT 1/2/3 -(S473) (converted)
In short: as §1

Compound | IC50 [1] [nM] | IC50 ([2]; MDA-MB-468, 4 h) [nM] | IC50 ([3]; MDA-MB-468, 4 h) [nM] | IC50 ([2]; 4 h) [nM] | IC50 ([3]; 4 h) [nM]
CO[C@H]1C[C@@H]2CC[C@@H](C)[C@@](O)(O2)C(=O)C(=O)N2CCCC[C@H]2C(=O)O[C@H]([C@H](C)C[C@@H]2CC[C@H](n3cc(-c4cnc(N5CCN(c6ncc(C(=O)NCCOCCOCCOCCOCCOCCC(=O)NCCCCn7nc(-c8ccc9oc(N)nc9c8)c8c(N)ncnc87)cn6)CC5)nc4)nn3)[C@H](OC)C2)CC(=O)[C@H](C)/C=C(\C)[C@@H](O)[C@@H](OC)C(=O)[C@H](C)C[C@H](C)/C=C/C=C/C=C/1C [Example 118] | < 1 | < 3.16 | 3.16 to 31.6 |  | 
CCO[C@@H]1C[C@@H]([C@H](C)C[C@@H]2CC[C@H](n3cc(COC(=O)NCCOCCOCCOCCC(=O)NCCOCCOCCOCCC(=O)NCCCCn4nc(-c5ccc6oc(N)nc6c5)c5c(N)ncnc54)nn3)[C@H](OC)C2)OC(=O)[C@@H]2CCCCN2C(=O)C(=O)[C@]2(O)O[C@@H](CC[C@H]2C)C[C@H](OC)/C(C)=C/C=C/C=C/[C@@H](C)C[C@@H](C)C(=O)[C@H](OC)[C@H](O)/C(C)=C/[C@H]1C [Example 149] | 1 to 10 | 31.6 to 1000 | 31.6 to 1000 |  | 
CO[C@H]1C[C@@H]2CC[C@@H](C)[C@@](O)(O2)C(=O)C(=O)N2CCCC[C@H]2C(=O)O[C@H]([C@H](C)C[C@@H]2CC[C@H](n3cc(CCCC(=O)NCCOCCOCCOCCOCCC(=O)NCCOCCOCCOCCOCCC(=O)NCCCCn4nc(-c5cc6cc(O)ccc6[nH]5)c5c(N)ncnc54)nn3)[C@H](OC)C2)CC(=O)[C@H](C)/C=C(\C)[C@@H](O)[C@@H](OC)C(=O)[C@H](C)C[C@H](C)/C=C/C=C/C=C/1C [Example 135] | 1 to 10 | 3.16 to 31.6 | 31.6 to 1000 |  | 
CO[C@H]1C[C@@H]2CC[C@@H](C)[C@@](O)(O2)C(=O)C(=O)N2CCCC[C@H]2C(=O)O[C@H]([C@H](C)C[C@@H]2CC[C@H](n3cc(COC(=O)NCCOCCOCCOCCC(=O)NCCOCCOCCOCCOCCC(=O)NCCCCn4nc(-c5cc6cc(O)ccc6[nH]5)c5c(N)ncnc54)nn3)[C@H](OC)C2)CC(=O)[C@H](C)/C=C(\C)[C@@H](O)[C@@H](OC)C(=O)[C@H](C)C[C@H](C)/C=C/C=C/C=C/1C [Example 126] | 1 to 10 | 3.16 to 31.6 | 31.6 to 1000 |  | 
CO[C@H]1C[C@@H]2CC[C@@H](C)[C@@](O)(O2)C(=O)C(=O)N2CCCC[C@H]2C(=O)O[C@H]([C@H](C)C[C@@H]2CC[C@@H](OCCCCc3cn(CCOCCOCCOCCOCCOCCC(=O)NCCCCn4nc(-c5ccc6oc(N)nc6c5)c5c(N)ncnc54)nn3)[C@H](OC)C2)CC(=O)[C@H](C)/C=C(\C)[C@@H](O)[C@@H](OC)C(=O)[C@H](C)C[C@H](C)/C=C/C=C/C=C/1C [Example 2] | < 1 |  |  | 3.16 to 31.6 | 31.6 to 1000
CO[C@H]1C[C@@H]2CC[C@@H](C)[C@@](O)(O2)C(=O)C(=O)N2CCCC[C@H]2C(=O)O[C@H]([C@H](C)C[C@@H]2CC[C@H](n3cc(CCCC(=O)NCCOCCOCCOCCC(=O)NCCOCCOCCOCCC(=O)NCCCCn4nc(-c5cc6cc(O)ccc6[nH]5)c5c(N)ncnc54)nn3)[C@H](OC)C2)C/C(=N/OC(C)(C)C)[C@H](C)/C=C(\C)[C@@H](O)[C@@H](OC)C(=O)[C@H](C)C[C@H](C)/C=C/C=C/C=C/1C [Example 178] | 10 to 1000 | > 1000 | > 1000 |  | 
CO[C@H]1C[C@@H]2CC[C@@H](C)[C@@](O)(O2)C(=O)C(=O)N2CCCC[C@H]2C(=O)O[C@H]([C@H](C)C[C@@H]2CC[C@@H](OCCCCc3cn(CCOCCOCCOCCOCCOCCOCCOCCOCCC(=O)N(C)CCCCn4nc(-c5ccc6oc(N)nc6c5)c5c(N)ncnc54)nn3)[C@H](OC)C2)CC(=O)[C@H](C)/C=C(\C)[C@@H](O)[C@@H](OC)C(=O)[C@H](C)C[C@H](C)/C=C/C=C/C=C/1C [Example 83] | < 1 | < 3.16 | < 3.16 |  | 
COc1cccc2cc(-c3nc([C@H]4CC[C@H](C(=O)NCCOCCOCCOCCNC(=O)CCOCCOCCOCCOCCn5cc(CCCCO[C@@H]6CC[C@@H](C[C@@H](C)[C@@H]7CC(=O)[C@H](C)/C=C(\C)[C@@H](O)[C@@H](OC)C(=O)[C@H](C)C[C@H](C)/C=C/C=C/C=C(\C)[C@@H](OC)C[C@@H]8CC[C@@H](C)[C@@](O)(O8)C(=O)C(=O)N8CCCC[C@H]8C(=O)O7)C[C@H]6OC)nn5)CC4)n4ncnc(N)c34)[nH]c12 [Example 189] | < 1 | < 3.16 | 3.16 to 31.6 |  | 
CO[C@H]1C[C@@H]2CC[C@@H](C)[C@@](O)(O2)C(=O)C(=O)N2CCCC[C@H]2C(=O)O[C@H]([C@H](C)C[C@@H]2CC[C@H](n3nncc3-c3cccc(-c4cnc(N5CCN(Cc6cn(CCOCCOCCOCCC(=O)NCCCCn7nc(-c8ccc9oc(N)nc9c8)c8c(N)ncnc87)nn6)C(CO)C5)nc4)c3)[C@H](OC)C2)CC(=O)[C@H](C)/C=C(\C)[C@@H](O)[C@@H](OC)C(=O)[C@H](C)C[C@H](C)/C=C/C=C/C=C/1C (stereo partly drawn) [Example 34] | 1 to 10 | 3.16 to 31.6 | 31.6 to 1000 |  | 
CCO[C@@H]1C[C@@H]([C@H](C)C[C@@H]2CC[C@H](n3cc(CCCC(=O)NCCOCCOCCOCCC(=O)NCCOCCOCCOCCC(=O)NCCCCn4nc(-c5ccc6oc(N)nc6c5)c5c(N)ncnc54)nn3)[C@H](OC)C2)OC(=O)[C@@H]2CCCCN2C(=O)C(=O)[C@]2(O)O[C@@H](CC[C@H]2C)C[C@H](OC)/C(C)=C/C=C/C=C/[C@@H](C)C[C@@H](C)C(=O)[C@H](OC)[C@H](O)/C(C)=C/[C@H]1C [Example 167] | 1 to 10 | 31.6 to 1000 | 31.6 to 1000 |  | 
CO[C@H]1C[C@@H]2CC[C@@H](C)[C@@](O)(O2)C(=O)C(=O)N2CCCCC2C(=O)O[C@H]([C@H](C)C[C@@H]2CC[C@H](n3cc(COCCOCCOCCOCCOCCOCCOCCOCCOCCOCCC(=O)NCCCCn4nc(-c5ccc6oc(N)nc6c5)c5c(N)ncnc54)nn3)[C@H](OC)C2)CC(=O)[C@H](C)/C=C(\C)[C@@H](O)[C@@H](OC)C(=O)[C@H](C)C[C@H](C)/C=C/C=C/C=C/1C (stereo in doubt) [Example 195] | 1 to 10 | 3.16 to 31.6 | 3.16 to 31.6 |  | 
CO[C@H]1C[C@@H]2CC[C@@H](C)[C@@](O)(O2)C(=O)C(=O)N2CCCC[C@H]2C(=O)O[C@H]([C@H](C)C[C@@H]2CC[C@H](n3cc(COC(=O)NCCOCCOCCOCCC(=O)NCCOCCOCCC(=O)NCCCCn4nc(-c5cc6cc(O)ccc6[nH]5)c5c(N)ncnc54)nn3)[C@H](OC)C2)CC(=O)[C@H](C)/C=C(\C)[C@@H](O)[C@@H](OC)C(=O)[C@H](C)C[C@H](C)/C=C/C=C/C=C/1C [Example 121] | 1 to 10 | 31.6 to 1000 | > 1000 |  | 
COc1cccc2cc(-c3nc([C@H]4CC[C@H](C(=O)NCCOCCOCCOCCOCCOCCOCCn5cc(CCCCO[C@@H]6CC[C@@H](C[C@@H](C)[C@@H]7CC(=O)[C@H](C)/C=C(\C)[C@@H](O)[C@@H](OC)C(=O)[C@H](C)C[C@H](C)/C=C/C=C/C=C(\C)[C@@H](OC)C[C@@H]8CC[C@@H](C)[C@@](O)(O8)C(=O)C(=O)N8CCCC[C@H]8C(=O)O7)C[C@H]6OC)nn5)CC4)n4ncnc(N)c34)[nH]c12 [Example 106] | < 1 | < 3.16 | 3.16 to 31.6 |  | 
COC(=O)NC1C[C@@H]2CC[C@@H](C)[C@@](O)(O2)C(=O)C(=O)N2CCCC[C@H]2C(=O)O[C@H]([C@H](C)C[C@@H]2CC[C@@H](OCCCCc3cn(CCOCCOCCOCCOCCOCCOCCOCCOCCC(=O)NCCCCn4nc(-c5ccc6oc(N)nc6c5)c5c(N)ncnc54)nn3)[C@H](OC)C2)CC(=O)[C@H](C)/C=C(\C)[C@@H](O)[C@@H](OC)C(=O)[C@H](C)C[C@H](C)/C=C/C=C/C=C/1C (stereo partly drawn) [Example 38] | 1 to 10 | 3.16 to 31.6 | 31.6 to 1000 |  | 
CO[C@H]1C[C@@H]2CC[C@@H](C)[C@@](O)(O2)C(=O)C(=O)N2CCCC[C@H]2C(=O)O[C@H]([C@H](C)C[C@@H]2CC[C@H](n3cc(-c4cccc(C(=O)NCCOCCOCCOCCOCCC(=O)NCCOCCOCCOCCOCCC(=O)NCCCCn5nc(-c6cc7cc(O)ccc7[nH]6)c6c(N)ncnc65)c4)nn3)[C@H](OC)C2)CC(=O)[C@H](C)/C=C(\C)[C@@H](O)[C@@H](OC)C(=O)[C@H](C)C[C@H](C)/C=C/C=C/C=C/1C [Example 142] | 1 to 10 | 3.16 to 31.6 | 31.6 to 1000 |  | 
CO[C@H]1C[C@@H]2CC[C@@H](C)[C@@](O)(O2)C(=O)C(=O)N2CCCC[C@H]2C(=O)O[C@H]([C@H](C)C[C@@H]2CC[C@H](n3cc(CCCC(=O)NCCOCCOCCOCCC(=O)NCCOCCOCCC(=O)NCCCCn4nc(-c5cc6cc(O)ccc6[nH]5)c5c(N)ncnc54)nn3)[C@H](OC)C2)CC(=O)[C@H](C)/C=C(\C)[C@@H](O)[C@@H](OC)C(=O)[C@H](C)C[C@H](C)/C=C/C=C/C=C/1C [Example 129] | 1 to 10 | 31.6 to 1000 | > 1000 |  | 
